The NIST ThermoML archive (doi:10.1016/j.jct.2018.05.019)
Numbers after ± are expanded uncertainties.

Conditions: 101.33 kPa, Liquid, transient hot wire

`CCCCC(=O)OC` [methyl pentanoate] showed a thermal conductivity (285.55 K) of 0.143 ± 0.0058 W/m/K, a thermal conductivity (290.39 K) of 0.1405 ± 0.0057 W/m/K and a thermal conductivity (295.51 K) of 0.1385 ± 0.0056 W/m/K. The thermal conductivity (298.99 K) was 0.1373 ± 0.0055 W/m/K, the thermal conductivity (305.5 K) was 0.1356 ± 0.0055 W/m/K and the thermal conductivity (312.35 K) was 0.1336 ± 0.0054 W/m/K. It also gave a thermal conductivity (320.42 K) of 0.1313 ± 0.0053 W/m/K, a thermal conductivity (327.35 K) of 0.1295 ± 0.0052 W/m/K and a thermal conductivity (333.5 K) of 0.1272 ± 0.0051 W/m/K. The thermal conductivity (340.41 K) was 0.1246 ± 0.005 W/m/K, the thermal conductivity (348.36 K) was 0.1229 ± 0.005 W/m/K and the thermal conductivity (355.39 K) was 0.1212 ± 0.0049 W/m/K. It also gave a thermal conductivity (362.16 K) of 0.1194 ± 0.0048 W/m/K.

With `CCCC(=O)OC` [methyl butanoate] the thermal conductivity (283.34 K) was 0.1459 ± 0.0059 W/m/K, the thermal conductivity (288.3 K) was 0.1442 ± 0.0058 W/m/K and the thermal conductivity (293.39 K) was 0.1416 ± 0.0057 W/m/K. The thermal conductivity (297.41 K) was 0.1401 ± 0.0056 W/m/K, the thermal conductivity (298.44 K) was 0.1397 ± 0.0056 W/m/K and the thermal conductivity (301.3 K) was 0.1391 ± 0.0056 W/m/K. The thermal conductivity (305.42 K) was 0.1372 ± 0.0055 W/m/K, the thermal conductivity (309.31 K) was 0.136 ± 0.0055 W/m/K and the thermal conductivity (313.29 K) was 0.1353 ± 0.0054 W/m/K. It also gave a thermal conductivity (318.38 K) of 0.1333 ± 0.0054 W/m/K, a thermal conductivity (323.35 K) of 0.1314 ± 0.0053 W/m/K and a thermal conductivity (328.55 K) of 0.1295 ± 0.0052 W/m/K. It also gave a thermal conductivity (333.25 K) of 0.128 ± 0.0052 W/m/K, a thermal conductivity (338.4 K) of 0.1261 ± 0.0051 W/m/K and a thermal conductivity (343.25 K) of 0.1249 ± 0.005 W/m/K. For the same compound, the thermal conductivity (348.24 K) was 0.1233 ± 0.005 W/m/K, the thermal conductivity (353.35 K) was 0.1215 ± 0.0049 W/m/K and the thermal conductivity (358.18 K) was 0.1207 ± 0.0049 W/m/K.

`CCCCCCCC(=O)OC` [methyl octanoate] gave a thermal conductivity (273.56 K) of 0.145 ± 0.0059 W/m/K, a thermal conductivity (278.48 K) of 0.1446 ± 0.0059 W/m/K and a thermal conductivity (283.44 K) of 0.1428 ± 0.0058 W/m/K. The thermal conductivity (288.35 K) was 0.1423 ± 0.0058 W/m/K, the thermal conductivity (293.42 K) was 0.1405 ± 0.0057 W/m/K and the thermal conductivity (298.33 K) was 0.1395 ± 0.0057 W/m/K. It also gave a thermal conductivity (303.21 K) of 0.1387 ± 0.0057 W/m/K, a thermal conductivity (308.29 K) of 0.1374 ± 0.0056 W/m/K and a thermal conductivity (313.29 K) of 0.1361 ± 0.0056 W/m/K. The thermal conductivity (318.22 K) was 0.1348 ± 0.0055 W/m/K, the thermal conductivity (323.2 K) was 0.1335 ± 0.0055 W/m/K and the thermal conductivity (328.3 K) was 0.132 ± 0.0054 W/m/K. For the same compound, the thermal conductivity (333.41 K) was 0.1304 ± 0.0053 W/m/K, the thermal conductivity (338.32 K) was 0.1294 ± 0.0053 W/m/K and the thermal conductivity (343.27 K) was 0.1285 ± 0.0053 W/m/K. It also gave a thermal conductivity (348.12 K) of 0.1275 ± 0.0052 W/m/K, a thermal conductivity (353.23 K) of 0.126 ± 0.0052 W/m/K and a thermal conductivity (358.28 K) of 0.1246 ± 0.0051 W/m/K. For the same compound, the thermal conductivity (363.09 K) was 0.1238 ± 0.0051 W/m/K, the thermal conductivity (368.27 K) was 0.1223 ± 0.005 W/m/K and the thermal conductivity (373.24 K) was 0.1212 ± 0.005 W/m/K. For the same compound, the thermal conductivity (378.21 K) was 0.1196 ± 0.0049 W/m/K, the thermal conductivity (383.17 K) was 0.1189 ± 0.0049 W/m/K and the thermal conductivity (388.44 K) was 0.1173 ± 0.0048 W/m/K. The thermal conductivity (393.54 K) was 0.116 ± 0.0047 W/m/K.

For `CCCCCCCCC(=O)OC` [methyl nonanoate], the thermal conductivity (278.44 K) was 0.1448 ± 0.0059 W/m/K, the thermal conductivity (283.5 K) was 0.1441 ± 0.0059 W/m/K and the thermal conductivity (288.5 K) was 0.1428 ± 0.0058 W/m/K. The thermal conductivity (293.36 K) was 0.1418 ± 0.0058 W/m/K, the thermal conductivity (298.3 K) was 0.141 ± 0.0058 W/m/K and the thermal conductivity (303.31 K) was 0.1393 ± 0.0057 W/m/K. The thermal conductivity (308.24 K) was 0.1387 ± 0.0057 W/m/K, the thermal conductivity (313.3 K) was 0.1371 ± 0.0056 W/m/K and the thermal conductivity (318.29 K) was 0.1365 ± 0.0056 W/m/K. It also gave a thermal conductivity (323.25 K) of 0.1347 ± 0.0055 W/m/K, a thermal conductivity (328.25 K) of 0.1337 ± 0.0055 W/m/K and a thermal conductivity (333.06 K) of 0.1327 ± 0.0054 W/m/K. The thermal conductivity (338.16 K) was 0.1313 ± 0.0054 W/m/K, the thermal conductivity (343.23 K) was 0.1299 ± 0.0053 W/m/K and the thermal conductivity (348.07 K) was 0.1289 ± 0.0053 W/m/K. It also gave a thermal conductivity (353.12 K) of 0.1277 ± 0.0052 W/m/K, a thermal conductivity (358.24 K) of 0.1263 ± 0.0052 W/m/K and a thermal conductivity (363.07 K) of 0.1256 ± 0.0051 W/m/K. The thermal conductivity (368.1 K) was 0.1242 ± 0.0051 W/m/K, the thermal conductivity (373.11 K) was 0.1227 ± 0.005 W/m/K and the thermal conductivity (378.24 K) was 0.1213 ± 0.005 W/m/K. It also gave a thermal conductivity (383.21 K) of 0.1207 ± 0.0049 W/m/K.

`CCCCCC(=O)OC` [methyl hexanoate] gave a thermal conductivity (263.83 K) of 0.1482 ± 0.006 W/m/K, a thermal conductivity (268.65 K) of 0.1472 ± 0.0059 W/m/K and a thermal conductivity (273.7 K) of 0.1448 ± 0.0058 W/m/K. It also gave a thermal conductivity (278.59 K) of 0.1439 ± 0.0058 W/m/K, a thermal conductivity (283.75 K) of 0.142 ± 0.0057 W/m/K and a thermal conductivity (288.67 K) of 0.1405 ± 0.0057 W/m/K. The thermal conductivity (293.64 K) was 0.1395 ± 0.0056 W/m/K, the thermal conductivity (298.72 K) was 0.1376 ± 0.0055 W/m/K and the thermal conductivity (303.63 K) was 0.1367 ± 0.0055 W/m/K. It also gave a thermal conductivity (308.61 K) of 0.1344 ± 0.0054 W/m/K, a thermal conductivity (313.6 K) of 0.1336 ± 0.0054 W/m/K and a thermal conductivity (321.08 K) of 0.1315 ± 0.0053 W/m/K. It also gave a thermal conductivity (328.54 K) of 0.1301 ± 0.0052 W/m/K, a thermal conductivity (333.52 K) of 0.1284 ± 0.0052 W/m/K and a thermal conductivity (338.55 K) of 0.1269 ± 0.0051 W/m/K. For the same compound, the thermal conductivity (343.49 K) was 0.1259 ± 0.0051 W/m/K, the thermal conductivity (348.48 K) was 0.1243 ± 0.005 W/m/K and the thermal conductivity (353.7 K) was 0.1231 ± 0.005 W/m/K. For the same compound, the thermal conductivity (358.38 K) was 0.1219 ± 0.0049 W/m/K, the thermal conductivity (363.41 K) was 0.1205 ± 0.0049 W/m/K and the thermal conductivity (368.5 K) was 0.1191 ± 0.0048 W/m/K.

`CCO` [ethanol] showed a thermal conductivity (276.51 K) of 0.1719 ± 0.0069 W/m/K, a thermal conductivity (280.8 K) of 0.1687 ± 0.0068 W/m/K and a thermal conductivity (284.27 K) of 0.1699 ± 0.0068 W/m/K. The thermal conductivity (290.37 K) was 0.1677 ± 0.0067 W/m/K and the thermal conductivity (293.43 K) was 0.1658 ± 0.0067 W/m/K.

`O` [water] showed a thermal conductivity (293.09 K) of 0.6056 ± 0.024 W/m/K, a thermal conductivity (299.55 K) of 0.613 ± 0.025 W/m/K and a thermal conductivity (309.83 K) of 0.6313 ± 0.025 W/m/K. It also gave a thermal conductivity (314.96 K) of 0.6399 ± 0.026 W/m/K, a thermal conductivity (319.56 K) of 0.6399 ± 0.026 W/m/K and a thermal conductivity (324.64 K) of 0.6492 ± 0.026 W/m/K. The thermal conductivity (332.53 K) was 0.6555 ± 0.026 W/m/K, the thermal conductivity (339.33 K) was 0.657 ± 0.026 W/m/K and the thermal conductivity (340.41 K) was 0.6654 ± 0.027 W/m/K. The thermal conductivity (349.41 K) was 0.6723 ± 0.027 W/m/K.
